In PubChem BioAssay (NCI):
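Where inhibition never reached the appropriate level, the endpoint shown equals the highest concentration tested. Otherwise, values were interpolated linearly from a five-concentration, 48-hour dose response in 96-well plates. TGI marks complete inhibition of growth.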

Key:
Experiment in all cases: inhibition of tumour cell growth, NCI panel, 48 h
K-562 leukemia = tested on: K-562 leukemia
SNB-19 CNS = tested on: SNB-19 CNS
NCI-H23 lung = tested on: NCI-H23 lung
HOP-92 NSCLC = tested on: HOP-92 NSCLC
HCT-15 colon = tested on: HCT-15 colon
HT29 colon = tested on: HT29 colon
LOX IMVI melanoma = tested on: LOX IMVI melanoma
OVCAR-4 ovarian = tested on: OVCAR-4 ovarian
SF-539 CNS = tested on: SF-539 CNS
IGROV1 ovarian = tested on: IGROV1 ovarian
SK-MEL-5 melanoma = tested on: SK-MEL-5 melanoma
UO-31 renal = tested on: UO-31 renal
COLO 205 colon = tested on: COLO 205 colon
MOLT-4 leukemia = tested on: MOLT-4 leukemia
OVCAR-5 ovarian = tested on: OVCAR-5 ovarian
SF-268 CNS = tested on: SF-268 CNS
M14 melanoma = tested on: M14 melanoma
SNB-75 CNS = tested on: SNB-75 CNS
OVCAR-3 ovarian = tested on: OVCAR-3 ovarian
SR leukemia = tested on: SR leukemia
NCI/ADR-RES ovarian = tested on: NCI/ADR-RES ovarian
BT-549 breast = tested on: BT-549 breast
CCRF-CEM leukemia = tested on: CCRF-CEM leukemia
MDA-MB-231 breast = tested on: MDA-MB-231 breast
HL-60(TB) leukemia = tested on: HL-60(TB) leukemia
DU-145 prostate = tested on: DU-145 prostate
HCT-116 colon = tested on: HCT-116 colon
SF-295 CNS = tested on: SF-295 CNS
KM12 colon = tested on: KM12 colon
UACC-62 melanoma = tested on: UACC-62 melanoma
U251 CNS = tested on: U251 CNS
UACC-257 melanoma = tested on: UACC-257 melanoma
786-0 renal = tested on: 786-0 renal
TK-10 renal = tested on: TK-10 renal
SK-MEL-28 melanoma = tested on: SK-MEL-28 melanoma
SK-MEL-2 melanoma = tested on: SK-MEL-2 melanoma
SN12C renal = tested on: SN12C renal
MCF7 breast = tested on: MCF7 breast
CAKI-1 renal = tested on: CAKI-1 renal
RPMI-8226 leukemia = tested on: RPMI-8226 leukemia
ACHN renal = tested on: ACHN renal
SK-OV-3 ovarian = tested on: SK-OV-3 ovarian
PC-3 prostate = tested on: PC-3 prostate
HOP-62 NSCLC = tested on: HOP-62 NSCLC
MALME-3M melanoma = tested on: MALME-3M melanoma
SW-620 colon = tested on: SW-620 colon
MDA-N = tested on: MDA-N
A549 NSCLC = tested on: A549 NSCLC
HCC-2998 colon = tested on: HCC-2998 colon
NCI-H460 lung = tested on: NCI-H460 lung
MDA-MB-435 = tested on: MDA-MB-435
T-47D breast = tested on: T-47D breast
RXF 393 renal = tested on: RXF 393 renal
HS 578T breast = tested on: HS 578T breast
NCI-H226 lung = tested on: NCI-H226 lung
NCI-H522 lung = tested on: NCI-H522 lung
OVCAR-8 ovarian = tested on: OVCAR-8 ovarian
A498 renal = tested on: A498 renal
EKVX NSCLC = tested on: EKVX NSCLC

In the case of `CCOC(=O)c1c(-c2ccc(OC)cc2)c(C#N)c(=S)n(C2OC(CO)C(O)C(O)C2O)c1-c1ccccc1` (stereo not drawn), the TGI (K-562 leukemia) is reported as greater than 100 µM, the TGI (SNB-19 CNS) is reported as greater than 100 µM and the TGI (NCI-H23 lung) is reported as greater than 100 µM. It also gave a TGI (HOP-92 NSCLC) of 32.8 µM, a TGI (HCT-15 colon) greater than 100 µM and a TGI (HT29 colon) greater than 100 µM. The TGI (LOX IMVI melanoma) was greater than 100 µM, the TGI (OVCAR-4 ovarian) was greater than 100 µM and the TGI (SF-539 CNS) was greater than 100 µM. The TGI (IGROV1 ovarian) was greater than 100 µM, the TGI (SK-MEL-5 melanoma) was 26.5 µM and the TGI (UO-31 renal) was greater than 100 µM. For the same molecule, the TGI (COLO 205 colon) was greater than 100 µM, the TGI (MOLT-4 leukemia) was 96.5 µM and the TGI (OVCAR-5 ovarian) was greater than 100 µM. For the same molecule, the TGI (SF-268 CNS) was greater than 100 µM, the TGI (M14 melanoma) was greater than 100 µM and the TGI (SNB-75 CNS) was greater than 100 µM. The TGI (OVCAR-3 ovarian) was 73 µM, the TGI (SR leukemia) was greater than 100 µM and the TGI (NCI/ADR-RES ovarian) was greater than 100 µM. The TGI (BT-549 breast) was greater than 100 µM, the TGI (CCRF-CEM leukemia) was greater than 100 µM and the TGI (MDA-MB-231 breast) was greater than 100 µM. The TGI (HL-60(TB) leukemia) was greater than 100 µM, the TGI (DU-145 prostate) was greater than 100 µM and the TGI (HCT-116 colon) was 85.3 µM. It also gave a TGI (SF-295 CNS) greater than 100 µM, a TGI (KM12 colon) greater than 100 µM and a TGI (UACC-62 melanoma) greater than 100 µM. It also gave a TGI (U251 CNS) greater than 100 µM, a TGI (UACC-257 melanoma) greater than 100 µM and a TGI (786-0 renal) greater than 100 µM. The TGI (TK-10 renal) was greater than 100 µM, the TGI (SK-MEL-28 melanoma) was greater than 100 µM and the TGI (SK-MEL-2 melanoma) was greater than 100 µM. It also gave a TGI (SN12C renal) greater than 100 µM, a TGI (MCF7 breast) greater than 100 µM and a TGI (CAKI-1 renal) greater than 100 µM. For the same molecule, the TGI (RPMI-8226 leukemia) was greater than 100 µM, the TGI (ACHN renal) was greater than 100 µM and the TGI (SK-OV-3 ovarian) was greater than 100 µM. For the same molecule, the TGI (PC-3 prostate) was greater than 100 µM, the TGI (HOP-62 NSCLC) was 80.7 µM and the TGI (MALME-3M melanoma) was greater than 100 µM. For the same molecule, the TGI (SW-620 colon) was greater than 100 µM, the TGI (MDA-N) was greater than 100 µM and the TGI (A549 NSCLC) was greater than 100 µM. The TGI (HCC-2998 colon) was greater than 100 µM, the TGI (NCI-H460 lung) was greater than 100 µM and the TGI (MDA-MB-435) was 95.9 µM. The TGI (T-47D breast) was greater than 100 µM, the TGI (RXF 393 renal) was 75.7 µM and the TGI (HS 578T breast) was 70 µM.

Molecule `COc1ccc(O)c(C=NCCCN=Cc2cc(OC)ccc2O)c1` has a TGI (K-562 leukemia) greater than 100 µM, a TGI (SNB-19 CNS) greater than 100 µM and a TGI (NCI-H23 lung) greater than 100 µM. It also gave a TGI (HOP-92 NSCLC) of 65 µM, a TGI (HCT-15 colon) of 93.1 µM and a TGI (HT29 colon) greater than 100 µM. For the same molecule, the TGI (OVCAR-4 ovarian) was greater than 100 µM, the TGI (IGROV1 ovarian) was greater than 100 µM and the TGI (NCI-H226 lung) was 73.2 µM. The TGI (UO-31 renal) was greater than 100 µM, the TGI (MOLT-4 leukemia) was greater than 100 µM and the TGI (OVCAR-5 ovarian) was greater than 100 µM. For the same molecule, the TGI (NCI-H522 lung) was greater than 100 µM, the TGI (M14 melanoma) was greater than 100 µM and the TGI (OVCAR-8 ovarian) was 69.9 µM. It also gave a TGI (SNB-75 CNS) of 64.7 µM, a TGI (OVCAR-3 ovarian) of 37.3 µM and a TGI (SR leukemia) greater than 100 µM. The TGI (BT-549 breast) was greater than 100 µM, the TGI (CCRF-CEM leukemia) was 83.5 µM and the TGI (MDA-MB-231 breast) was greater than 100 µM. For the same molecule, the TGI (HL-60(TB) leukemia) was 28.5 µM, the TGI (DU-145 prostate) was 80.5 µM and the TGI (HCT-116 colon) was greater than 100 µM. For the same molecule, the TGI (SF-295 CNS) was 51.1 µM, the TGI (KM12 colon) was 64.6 µM and the TGI (UACC-62 melanoma) was 84.5 µM. The TGI (U251 CNS) was 56.9 µM, the TGI (UACC-257 melanoma) was 69.5 µM and the TGI (786-0 renal) was greater than 100 µM. The TGI (TK-10 renal) was greater than 100 µM, the TGI (SK-MEL-28 melanoma) was greater than 100 µM and the TGI (A498 renal) was greater than 100 µM. It also gave a TGI (SK-MEL-2 melanoma) greater than 100 µM, a TGI (SN12C renal) of 83.5 µM and a TGI (MCF7 breast) of 56.9 µM. It also gave a TGI (RPMI-8226 leukemia) of 74.7 µM, a TGI (ACHN renal) of 74.4 µM and a TGI (EKVX NSCLC) of 83 µM. It also gave a TGI (PC-3 prostate) greater than 100 µM, a TGI (HOP-62 NSCLC) greater than 100 µM and a TGI (MALME-3M melanoma) of 62.7 µM. For the same molecule, the TGI (SW-620 colon) was greater than 100 µM, the TGI (MDA-N) was greater than 100 µM and the TGI (A549 NSCLC) was greater than 100 µM. The TGI (NCI-H460 lung) was greater than 100 µM, the TGI (MDA-MB-435) was 86.4 µM and the TGI (RXF 393 renal) was 95.2 µM. It also gave a TGI (HS 578T breast) of 68 µM.
